System: pentagastrin-stimulated acid secretion of the perfused rat stomach
Test: Secretion-inhibiting action on the perfused rat stomach
Settings: anesthetized female CD rat, dose 3 μmol/kg i.d. (intraduodenal)
From the text: Testing of the Secretion-Inhibiting Action on the Perfused Rat Stomach
In Table A which follows, the influence of the compounds of the formula 1 according to the invention on the pentagastrin-stimulated acid secretion of the perfused rat stomach after intraduodenal admnistation in vivo is shown.
The abdomen of anesthetized rats (CD rat, female, 200-250 g; 1.5 g/kg i.m. urethane) was opened after tracheotomy by a median upper abdominal incision and a PVC catheter was fixed transorally in the esophagus and another via the pylorus such that the ends of the tubes just projected into the gastric lumen. The catheter leading from the pylorus led outward into the right abdominal wall through a side opening.
After thorough rinsing (about 50-100 ml), warm (37° C.) physiological NaCl solution was continuously passed through the stomach (0.5 ml/min, pH 6.8-6.9; Braun-Unita I). The pH (pH meter 632, glass electrode EA 147; φ=5 mm, Metrohm) and, by titration with a freshly prepared 0.01N NaOH solution to pH 7 (Dosimat 665 Metrohm), the secreted HCl were determined in the effluent in each case collected at an internal of 15 minutes.
The gastric secretion was stimulated by continuous infusion of […] (=1.65 ml/h) of i.v. pentagastrin (left femoral vein) about 30 min after the end of the operation (i.e. after determination of 2 preliminary fractions). The substances to be tested were administered intraduodenally in a 2.5 ml/kg liquid volume 60 min after the start of the continuous pentagastrin infusion. The body temperature of the animals was kept at a constant 37.8-38° C. by infrared irradiation and heat pads (automatic, stepless control by means of a rectal temperature sensor).
For `CNC(=O)c1cc2c(nc(C)n2C)c2c1[C@H](O)[C@H](O)[C@@H](c1ccccc1)N2` [Example 1, (6S,7R,8R)-[6,7,8,9-Tetrahydro-6,7-dihydroxy-2,3-dimethyl-8-phenyl-3H-imidazo[4,5-h]quinoline-5-yl]-carboxylic acid methylamide], the inhibition in vivo at 3 µmol/kg was greater than 15%.
`CNC(=O)c1cc2c(nc(C)n2C)c2c1[C@@H](O)[C@H](O)[C@@H](c1ccccc1)N2` [Example 2, (6R,7R,8R)-[6,7,8,9-Tetrahydro-6,7-dihydroxy-2,3-dimethyl-8-phenyl-3H-imidazo[4,5-h]quinoline-5-yl]-carboxylic acid methylamide] showed an inhibition in vivo at 3 µmol/kg greater than 15%.
For `CCCCO[C@H]1c2c(C(=O)NC)cc3c(nc(C)n3C)c2N[C@H](c2ccccc2)[C@H]1O` [Example 3, (6S,7R,8R)-[6-n-butyloxy-6,7,8,9-tetrahydro-7-hydroxy-2,3-dimethyl-8-phenyl-3H-imidazo[4,5-h]quinoline-5-yl]-carboxylic acid methylamide], the inhibition in vivo at 3 µmol/kg was greater than 15%.
With `CCCCO[C@@H]1c2c(C(=O)NC)cc3c(nc(C)n3C)c2N[C@H](c2ccccc2)[C@H]1O` [Example 4, (6R,7R,8R)-[6-n-butyloxy-6,7,8,9-tetrahydro-7-hydroxy-2,3-dimethyl-8-phenyl-3H-imidazo[4,5-h]quinoline-5-yl]-carboxylic acid methylamide] the inhibition in vivo at 3 µmol/kg was greater than 15%.
Work on `C#CCO[C@H]1c2c(C(=O)NC)cc3c(nc(C)n3C)c2N[C@H](c2ccccc2)[C@H]1O` [Example 7, (6S,7R,8R)-[6,7,8,9-Tetrahydro-7-hydroxy-2,3-dimethyl-8-phenyl-6-propargyloxy-3H-imidazo[4,5-h]quinoline-5-yl]-carboxylic acid methylamide] yielded an inhibition in vivo at 3 µmol/kg greater than 15%.
In the case of `CNC(=O)c1cc2c(nc(C)n2C)c2c1[C@@H](CC(F)F)[C@@H](O)[C@@H](c1ccccc1)N2` [Example 10, (6R,7R,8R)-[7-Hydroxy-2,3-dimethyl-8-phenyl-6-(2,2-difluoroethyl)-6,7,8,9-tetrahydro-3H-imidazo[4,5-h]quinoline-5-yl]-carboxylic acid methylamide], the inhibition in vivo at 3 µmol/kg is reported as greater than 15%.
In the case of `CNC(=O)c1cc2c(nc(C)n2C)c2c1C[C@@H](O)[C@@H](c1ccccc1)N2` [Example 11, (7R,8R)-[7-Hydroxy-2,3-dimethyl-8-phenyl-6,7,8,9-tetrahydro-3H-imidazo[4,5-h]quinoline-5-yl]-carboxylic acid methylamide], the inhibition in vivo at 3 µmol/kg is reported as greater than 15%.
With `Cc1nc2c3c(c(C(=O)N(C)C)cc2n1C)C(O)[C@H](O)[C@@H](c1ccccc1)N3` (stereo partly drawn) [Example 12, (7R,8R)-[6,7-Dihydroxy-2,3-dimethyl-8-phenyl-6,7,8,9-tetrahydro-3H-imidazo[4,5-h]quinoline-5-yl]carboxylic acid dimethylamide] the inhibition in vivo at 3 µmol/kg was greater than 15%.
Molecule `CCCCO[C@H]1c2c(C(=O)N(C)C)cc3c(nc(C)n3C)c2N[C@H](c2ccccc2)[C@H]1O` [Example 13, (6S,7R,8R)-[6-n-Butyloxy-7-hydroxy-2,3-dimethyl-8-phenyl-6,7,8,9-tetrahydro-3H-imidazo[4,5-h]quinoline-5-yl]-carboxylic acid dimethylamide] has an inhibition in vivo at 3 µmol/kg greater than 15%.
With `CCCCO[C@@H]1c2c(C(=O)N(C)C)cc3c(nc(C)n3C)c2N[C@H](c2ccccc2)[C@H]1O` [Example 14, (6R,7R,8R)-[6-n-Butyloxy-7-hydroxy-2,3-dimethyl-8-phenyl-6,7,8,9-tetrahydro-3H-imidazo[4,5-h]quinoline-5-yl]-carboxylic acid dimethylamide] the inhibition in vivo at 3 µmol/kg was greater than 15%.
In the case of `Cc1nc2c3c(c(C(=O)N(C)C)cc2n1C)C[C@@H](O)[C@@H](c1ccccc1)N3` [Example 15, (7R,8R)-[7-Hydroxy-2,3-dimethyl-8-phenyl-6,7,8,9-tetrahydro-3H-imidazo[4,5-h]quinoline-5-yl]-carboxylic acid dimethylamide], the inhibition in vivo at 3 µmol/kg is reported as greater than 15%.

System: not given
Test: not given
Settings: not given
Molecule `CNC(=O)c1cc2c(nc(C)n2C)c2c1C[C@@H](O)[C@@H](c1ccccc1)N2` [Example 11, (7R,8R)-[7-Hydroxy-2,3-dimethyl-8-phenyl-6,7,8,9-tetrahydro-3H-imidazo[4,5-h]quinoline-5-yl]-carboxylic acid methylamide] has a melting point of 265 to 268 °C.

— patent US20070244154A1, “Substituted Tricyclic Benzimidazoles” (Altana Pharma AG, priority 2004, published 2007)
